ChEMBL document CHEMBL3627608, “Crystal structures of human RIP2 kinase catalytic domain complexed with ATP-competitive inhibitors: Foundations for understanding inhibitor selectivity” (Bioorg Med Chem, 2015)
Blank lines part the entries; values can stand above or below the molecule they belong to.

Assays:
[1] = biological target: Serine/threonine-protein kinase 16 (Homo sapiens) (UniProt O75716); experiment: Inhibition of STK16 (unknown origin) at 10 uM after 120 mins P33 radiolabeled kinase activity assay
[2] = test system: Fibroblast growth factor receptor; experiment: Inhibition of FGFR (unknown origin) at 10 uM after 120 mins P33 radiolabeled kinase activity assay; settings: Homo sapiens
[3] = biological target: Bone morphogenetic protein receptor type-1B (Homo sapiens) (UniProt O00238); experiment: Inhibition of ALK6 (unknown origin) at 10 uM after 120 mins P33 radiolabeled kinase activity assay
[4] = biological target: Protein kinase C theta type (Homo sapiens) (UniProt Q04759); experiment: Inhibition of PKCtheta (unknown origin) at 10 uM after 120 mins P33 radiolabeled kinase activity assay
[5] = biological target: Dual specificity mitogen-activated protein kinase kinase 4 (Homo sapiens) (UniProt P45985); experiment: Inhibition of MKK4 (unknown origin) at 10 uM after 120 mins P33 radiolabeled kinase activity assay
Dual specificity mitogen-activated protein kinase kinase 4 (Homo sapiens), sequence (P45985 whole entry): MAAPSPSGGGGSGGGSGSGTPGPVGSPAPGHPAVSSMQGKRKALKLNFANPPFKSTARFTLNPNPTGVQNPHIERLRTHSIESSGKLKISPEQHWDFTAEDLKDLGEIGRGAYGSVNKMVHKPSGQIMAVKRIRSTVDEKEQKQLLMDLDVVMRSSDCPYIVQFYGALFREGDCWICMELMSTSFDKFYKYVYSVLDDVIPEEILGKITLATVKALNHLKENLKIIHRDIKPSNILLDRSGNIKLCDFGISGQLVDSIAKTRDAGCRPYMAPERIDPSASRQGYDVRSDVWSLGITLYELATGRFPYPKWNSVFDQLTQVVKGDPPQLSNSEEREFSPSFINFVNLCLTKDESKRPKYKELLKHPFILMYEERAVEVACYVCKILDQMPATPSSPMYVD

[6] = biological target: Mitogen-activated protein kinase 10 (Homo sapiens) (UniProt P53779); experiment: Inhibition of JNK3 (unknown origin) at 10 uM after 120 mins P33 radiolabeled kinase activity assay
[7] = biological target: Serine/threonine-protein kinase tousled-like 2 (Homo sapiens) (UniProt Q86UE8); experiment: Inhibition of TLK2 (unknown origin) at 10 uM after 120 mins P33 radiolabeled kinase activity assay
[8] = biological target: Serine/threonine-protein kinase ICK (Homo sapiens) (UniProt Q9UPZ9); experiment: Inhibition of LCK2 (unknown origin) at 10 uM after 120 mins P33 radiolabeled kinase activity assay
[9] = biological target: Serine/threonine-protein kinase PAK 1 (Homo sapiens) (UniProt Q13153); experiment: Inhibition of PAK1 (unknown origin) at 10 uM after 120 mins P33 radiolabeled kinase activity assay
Serine/threonine-protein kinase PAK 1 (Homo sapiens), sequence (Q13153 whole entry): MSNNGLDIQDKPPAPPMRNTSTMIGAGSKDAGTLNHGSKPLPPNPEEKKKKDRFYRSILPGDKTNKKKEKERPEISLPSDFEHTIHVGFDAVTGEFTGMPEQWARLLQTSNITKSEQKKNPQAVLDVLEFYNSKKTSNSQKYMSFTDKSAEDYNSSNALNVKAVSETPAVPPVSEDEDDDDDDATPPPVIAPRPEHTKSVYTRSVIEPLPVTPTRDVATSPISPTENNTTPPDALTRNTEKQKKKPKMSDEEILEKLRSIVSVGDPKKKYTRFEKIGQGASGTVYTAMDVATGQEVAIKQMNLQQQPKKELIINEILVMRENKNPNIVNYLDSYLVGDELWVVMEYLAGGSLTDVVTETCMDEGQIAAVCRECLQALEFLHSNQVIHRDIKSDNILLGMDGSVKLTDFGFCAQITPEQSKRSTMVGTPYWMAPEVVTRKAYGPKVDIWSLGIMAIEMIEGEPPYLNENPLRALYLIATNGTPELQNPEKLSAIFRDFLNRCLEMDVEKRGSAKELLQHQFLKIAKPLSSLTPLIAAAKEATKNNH

[10] = biological target: Mitogen-activated protein kinase kinase kinase 3 (Homo sapiens) (UniProt Q99759); experiment: Inhibition of MEKK3 (unknown origin) at 10 uM after 120 mins P33 radiolabeled kinase activity assay
[11] = biological target: SRSF protein kinase 3 (Homo sapiens) (UniProt Q9UPE1); experiment: Inhibition of MSSK1 (unknown origin) at 10 uM after 120 mins P33 radiolabeled kinase activity assay
SRSF protein kinase 3 (Homo sapiens), sequence (Q9UPE1 whole entry): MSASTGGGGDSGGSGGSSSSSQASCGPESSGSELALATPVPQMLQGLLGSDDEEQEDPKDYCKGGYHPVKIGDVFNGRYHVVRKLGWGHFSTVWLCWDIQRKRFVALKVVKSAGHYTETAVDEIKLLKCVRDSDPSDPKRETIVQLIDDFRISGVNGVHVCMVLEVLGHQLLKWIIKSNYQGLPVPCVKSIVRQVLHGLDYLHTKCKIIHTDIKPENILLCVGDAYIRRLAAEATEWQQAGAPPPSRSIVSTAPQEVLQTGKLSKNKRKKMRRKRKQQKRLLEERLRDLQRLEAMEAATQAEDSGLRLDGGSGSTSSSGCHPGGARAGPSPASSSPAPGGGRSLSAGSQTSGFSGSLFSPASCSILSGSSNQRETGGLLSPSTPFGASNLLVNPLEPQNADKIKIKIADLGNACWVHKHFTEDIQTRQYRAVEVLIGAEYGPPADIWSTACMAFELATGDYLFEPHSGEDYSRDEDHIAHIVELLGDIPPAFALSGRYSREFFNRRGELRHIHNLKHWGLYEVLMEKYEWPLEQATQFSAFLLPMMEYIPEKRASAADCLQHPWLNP

[12] = biological target: Mitogen-activated protein kinase kinase kinase 8 (Homo sapiens) (UniProt P41279); experiment: Inhibition of COT1 (unknown origin) at 10 uM after 120 mins P33 radiolabeled kinase activity assay
[13] = biological target: Mitogen-activated protein kinase kinase kinase 21 (Homo sapiens) (UniProt Q5TCX8); experiment: Inhibition of MLK4 (unknown origin) at 10 uM after 120 mins P33 radiolabeled kinase activity assay
[14] = biological target: Activin receptor type-1B (Homo sapiens) (UniProt P36896); experiment: Inhibition of ALK4 (unknown origin) at 10 uM after 120 mins P33 radiolabeled kinase activity assay
[15] = biological target: TGF-beta receptor type-2 (Homo sapiens) (UniProt P37173); experiment: Inhibition of TGFBR2 (unknown origin) at 10 uM after 120 mins P33 radiolabeled kinase activity assay
[16] = biological target: Dual specificity mitogen-activated protein kinase kinase 6 (Homo sapiens) (UniProt P52564); experiment: Inhibition of MKK6 (unknown origin) at 10 uM after 120 mins P33 radiolabeled kinase activity assay
[17] = biological target: Megakaryocyte-associated tyrosine-protein kinase (Homo sapiens) (UniProt P42679); experiment: Inhibition of CTK (unknown origin) at 10 uM after 120 mins P33 radiolabeled kinase activity assay
Megakaryocyte-associated tyrosine-protein kinase (Homo sapiens), sequence (P42679 whole entry): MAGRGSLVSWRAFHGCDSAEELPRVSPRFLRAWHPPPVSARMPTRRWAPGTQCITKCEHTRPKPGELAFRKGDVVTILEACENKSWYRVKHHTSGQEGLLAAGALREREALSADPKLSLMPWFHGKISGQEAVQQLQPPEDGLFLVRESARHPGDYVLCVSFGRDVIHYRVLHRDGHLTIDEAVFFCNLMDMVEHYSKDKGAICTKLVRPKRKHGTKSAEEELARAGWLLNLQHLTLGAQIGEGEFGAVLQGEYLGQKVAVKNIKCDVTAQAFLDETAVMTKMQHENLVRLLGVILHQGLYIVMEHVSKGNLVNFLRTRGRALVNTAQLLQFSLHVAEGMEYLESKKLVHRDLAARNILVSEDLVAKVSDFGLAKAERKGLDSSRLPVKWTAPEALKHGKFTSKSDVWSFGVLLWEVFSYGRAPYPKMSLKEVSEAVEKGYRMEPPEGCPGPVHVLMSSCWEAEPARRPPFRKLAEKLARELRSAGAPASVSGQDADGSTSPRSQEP

[18] = biological target: Serine/threonine-protein kinase 24 (Homo sapiens) (UniProt Q9Y6E0); experiment: Inhibition of MST3 (unknown origin) at 10 uM after 120 mins P33 radiolabeled kinase activity assay
[19] = biological target: Dual specificity tyrosine-phosphorylation-regulated kinase 4 (Homo sapiens) (UniProt Q9NR20); experiment: Inhibition of DYRK4 (unknown origin) at 10 uM after 120 mins P33 radiolabeled kinase activity assay
[20] = biological target: Serine/threonine-protein kinase Nek6 (Homo sapiens) (UniProt Q9HC98); experiment: Inhibition of NEK6 (unknown origin) at 10 uM after 120 mins P33 radiolabeled kinase activity assay
[21] = biological target: Serine/threonine-protein kinase WNK1 (Homo sapiens) (UniProt Q9H4A3); experiment: Inhibition of WNK1 (unknown origin) at 10 uM after 120 mins P33 radiolabeled kinase activity assay
Serine/threonine-protein kinase WNK1 (Homo sapiens), sequence (Q9H4A3 whole entry, looked up): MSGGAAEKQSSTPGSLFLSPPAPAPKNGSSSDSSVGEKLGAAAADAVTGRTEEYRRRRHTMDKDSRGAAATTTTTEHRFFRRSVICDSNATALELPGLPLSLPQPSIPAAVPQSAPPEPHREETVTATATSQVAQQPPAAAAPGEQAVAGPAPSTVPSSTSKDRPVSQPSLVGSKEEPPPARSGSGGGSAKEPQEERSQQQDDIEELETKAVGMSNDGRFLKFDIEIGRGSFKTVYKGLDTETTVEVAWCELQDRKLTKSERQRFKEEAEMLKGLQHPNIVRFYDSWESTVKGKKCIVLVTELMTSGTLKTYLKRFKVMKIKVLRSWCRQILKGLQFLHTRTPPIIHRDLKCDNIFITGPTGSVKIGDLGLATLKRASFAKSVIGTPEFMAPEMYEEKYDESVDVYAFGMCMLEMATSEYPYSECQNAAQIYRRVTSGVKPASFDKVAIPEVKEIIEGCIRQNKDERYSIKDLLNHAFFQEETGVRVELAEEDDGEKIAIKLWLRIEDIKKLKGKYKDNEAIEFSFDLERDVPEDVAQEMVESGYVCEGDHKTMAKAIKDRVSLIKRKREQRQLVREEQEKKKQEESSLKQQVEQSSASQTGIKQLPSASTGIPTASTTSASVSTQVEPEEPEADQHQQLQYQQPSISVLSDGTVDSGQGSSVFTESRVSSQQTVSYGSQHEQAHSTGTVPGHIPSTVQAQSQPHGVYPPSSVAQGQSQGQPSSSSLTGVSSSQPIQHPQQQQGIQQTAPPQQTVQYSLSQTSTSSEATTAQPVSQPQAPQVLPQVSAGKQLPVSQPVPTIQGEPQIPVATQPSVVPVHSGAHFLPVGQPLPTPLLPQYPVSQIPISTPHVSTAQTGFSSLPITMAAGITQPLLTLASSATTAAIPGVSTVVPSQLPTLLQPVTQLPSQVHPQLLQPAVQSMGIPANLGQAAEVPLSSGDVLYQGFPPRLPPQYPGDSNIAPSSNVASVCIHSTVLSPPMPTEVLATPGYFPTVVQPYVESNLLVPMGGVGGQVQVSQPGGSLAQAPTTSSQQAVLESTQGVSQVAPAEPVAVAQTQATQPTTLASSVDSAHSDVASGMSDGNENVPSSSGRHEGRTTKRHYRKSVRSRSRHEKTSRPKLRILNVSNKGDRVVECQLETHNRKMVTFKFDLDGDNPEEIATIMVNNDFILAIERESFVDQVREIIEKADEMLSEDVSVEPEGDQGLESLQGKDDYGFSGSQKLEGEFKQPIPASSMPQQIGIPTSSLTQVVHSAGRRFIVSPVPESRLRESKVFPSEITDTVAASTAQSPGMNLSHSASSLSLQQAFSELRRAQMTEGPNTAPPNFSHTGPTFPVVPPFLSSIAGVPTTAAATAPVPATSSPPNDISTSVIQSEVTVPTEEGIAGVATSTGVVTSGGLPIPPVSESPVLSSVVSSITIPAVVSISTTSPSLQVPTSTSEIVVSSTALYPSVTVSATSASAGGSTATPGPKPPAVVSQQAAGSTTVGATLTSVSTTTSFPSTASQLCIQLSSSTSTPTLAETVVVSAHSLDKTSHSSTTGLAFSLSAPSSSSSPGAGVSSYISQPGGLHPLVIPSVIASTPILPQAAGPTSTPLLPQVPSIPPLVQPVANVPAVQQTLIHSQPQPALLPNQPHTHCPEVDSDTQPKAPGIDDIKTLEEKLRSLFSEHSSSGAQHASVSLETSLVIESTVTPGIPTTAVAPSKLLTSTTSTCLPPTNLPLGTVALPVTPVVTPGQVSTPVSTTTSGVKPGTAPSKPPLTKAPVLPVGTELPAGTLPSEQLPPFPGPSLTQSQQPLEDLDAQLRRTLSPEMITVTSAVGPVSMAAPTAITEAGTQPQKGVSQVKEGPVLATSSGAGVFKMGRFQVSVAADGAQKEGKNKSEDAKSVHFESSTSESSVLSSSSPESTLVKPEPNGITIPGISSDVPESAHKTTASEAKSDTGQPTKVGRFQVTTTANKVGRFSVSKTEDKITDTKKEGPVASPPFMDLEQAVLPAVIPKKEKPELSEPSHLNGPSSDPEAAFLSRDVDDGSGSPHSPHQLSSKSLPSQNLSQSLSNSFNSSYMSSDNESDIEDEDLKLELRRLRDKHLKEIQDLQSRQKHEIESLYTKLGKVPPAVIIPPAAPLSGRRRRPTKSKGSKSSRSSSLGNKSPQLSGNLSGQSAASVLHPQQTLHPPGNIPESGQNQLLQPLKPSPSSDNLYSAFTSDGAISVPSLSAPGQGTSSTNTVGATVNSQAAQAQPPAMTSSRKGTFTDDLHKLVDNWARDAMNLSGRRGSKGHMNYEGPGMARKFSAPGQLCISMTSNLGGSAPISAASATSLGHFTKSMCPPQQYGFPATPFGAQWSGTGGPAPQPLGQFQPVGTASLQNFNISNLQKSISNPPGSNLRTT

[22] = biological target: Serine/threonine-protein kinase 3 (Homo sapiens) (UniProt Q13188); experiment: Inhibition of MST2 (unknown origin) at 10 uM after 120 mins P33 radiolabeled kinase activity assay
Serine/threonine-protein kinase 3 (Homo sapiens), sequence (Q13188 whole entry): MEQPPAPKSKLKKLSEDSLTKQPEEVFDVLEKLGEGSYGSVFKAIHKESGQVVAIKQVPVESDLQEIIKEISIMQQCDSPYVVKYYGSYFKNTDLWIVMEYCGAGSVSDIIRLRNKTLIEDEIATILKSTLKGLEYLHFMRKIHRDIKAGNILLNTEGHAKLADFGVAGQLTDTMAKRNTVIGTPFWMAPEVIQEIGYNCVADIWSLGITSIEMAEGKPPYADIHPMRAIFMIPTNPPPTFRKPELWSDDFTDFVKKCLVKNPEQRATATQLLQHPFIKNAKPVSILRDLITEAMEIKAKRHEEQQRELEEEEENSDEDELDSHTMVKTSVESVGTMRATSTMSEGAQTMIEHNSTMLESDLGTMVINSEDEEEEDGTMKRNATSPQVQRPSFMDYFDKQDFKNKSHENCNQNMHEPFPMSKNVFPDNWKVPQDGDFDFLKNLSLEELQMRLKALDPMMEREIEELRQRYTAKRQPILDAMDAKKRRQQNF

[23] = biological target: Serine/threonine-protein kinase 25 (Homo sapiens) (UniProt O00506); experiment: Inhibition of STK25 (unknown origin) at 10 uM after 120 mins P33 radiolabeled kinase activity assay
[24] = biological target: Serine/threonine-protein kinase 26 (Homo sapiens) (UniProt Q9P289); experiment: Inhibition of MST4 (unknown origin) at 10 uM after 120 mins P33 radiolabeled kinase activity assay
[25] = biological target: Mitogen-activated protein kinase 7 (Homo sapiens) (UniProt Q13164); experiment: Inhibition of ERK5 (unknown origin) at 10 uM after 120 mins P33 radiolabeled kinase activity assay
[26] = biological target: Wee1-like protein kinase (Homo sapiens) (UniProt P30291); experiment: Inhibition of WEE1 (unknown origin) at 10 uM after 120 mins P33 radiolabeled kinase activity assay

inhibition [1]: 7.44%
inhibition [2]: 46.7%
inhibition [3]: 92.8%
inhibition [4]: -5.48%
inhibition [5]: 19.4%
inhibition [6]: -7.87%
inhibition [7]: -6.51%
inhibition [8]: -4.6%
inhibition [9]: 56.5%
inhibition [10]: 9.88%
inhibition [11]: -1.37%
inhibition [12]: 11.2%
inhibition [13]: 49.7%
inhibition [14]: 42.4%
inhibition [15]: 96.6%
inhibition [16]: 80.9%
Compound: CS(=O)(=O)c1cccc(Nc2nccc(-c3sc(N4CCOCC4)nc3-c3cccc(NS(=O)(=O)c4c(F)cccc4F)c3)n2)c1

inhibition [17]: 10.8%
inhibition [18]: 23.8%
inhibition [19]: -3.46%
inhibition [20]: -5.95%
inhibition [21]: 8.03%
inhibition [22]: -5.33%
inhibition [9]: 5.25%
inhibition [23]: -0.09%
inhibition [24]: 3.31%
Compound: COCCNC(=O)c1ccc2c(c1)nc(-c1cnc(-c3ccc(Cl)cc3)[nH]1)n2CCOC

inhibition [25]: -8.59%
inhibition [5]: 1.14%
inhibition [21]: 5.52%
inhibition [22]: -4.9%
inhibition [11]: 85%
inhibition [26]: -4.91%
Compound: CC(C)(C)c1cc(NC(=O)Nc2ccc(Oc3ccncc3)cc2)no1
